Marks after values point to notes of the source that are not given here.
Assays:
Assay type in all cases: in vivo
C57BL/KsBom-db/db mice [1] = assay: Serum lipid profile of treated db/db mice (antidyslipidemic activity); details: 25 mg/kg
Experimental: (§1) C57BL/KsBom-db/db mice (12-18 weeks old), weighing around 35+g bred in the animal house of CDRI, Lucknow, were used in the present experiments. The mice were housed in groups of 3 to 5 (same sex) in a room controlled for temperature (23±2.0 ° C.) and 12/12 hours light/dark cycle (lights on at 6.00 am). Body weight of each animal was measured daily from day 1 to day 10 of the experiment. All animals had free access to fresh water and normal pellet diet except on the day of the postprandial protocol (day 6) and during the overnight fast before the OGTT on day 10. The animals always had access to water during experimental periods. Blood glucose was checked every morning up till day 10. On day 10 an oral glucose tolerance test (OGTT) was performed after an overnight fasting. Blood glucose was measured at −30.0 min and test compounds were administered. The blood glucose was again measured at 0 min just post treatment and at this juncture glucose solution was given at a dose of 3 gm/kg to all the groups including the vehicle treated group. The blood glucose levels were checked at 30 min, 60 min, 90 min and 120 min post glucose administration. The data was analyzed for its significance on Prism software.

C57BL/KsBom-db/db mice [2] = assay: as above
C57BL/KsBom-db/db mice [3] = assay: Oral glucose tolerance test (OGTT) on day 10 in db/db mice; details: for Blood glucose profile, 0 min post glucose load / Blood glucose % change compared to control, 0 min post glucose load: OGTT day 10, 0 min; for Blood glucose profile, 30 min post glucose load / Blood glucose % change compared to control, 30 min post glucose load: OGTT day 10, 30 min; for Blood glucose profile, 60 min post glucose load / Blood glucose % change compared to control, 60 min post glucose load: OGTT day 10, 60 min; for Blood glucose profile, 90 min post glucose load / Blood glucose % change compared to control, 90 min post glucose load: OGTT day 10, 90 min
Experimental: as §1

[4] = db/db mice, 10 mg/kg, statistically insignificant
[5] = db/db mice, test dose 10 mg/kg, in %
[6] = db/db mice, test dose 25 mg/kg, in %

With `CC(C)(C)NC[C@H](O)COc1ccc2c(=O)cc(-c3cc(OCc4ccccc4)cc(OCc4ccccc4)c3)oc2c1` [S-002-853 (S), (S)-(+)-7-(3-tert-Butylamino-2-hydroxypropoxy)-3′,5′-dibenzyloxyflavone] the “Serum lipid profile: Cholesterol” value (C57BL/KsBom-db/db mice [1]) was 185 ± 51.4 mg/dL, the “Serum lipid profile: HDL-Chol” value (C57BL/KsBom-db/db mice [1]) was 49.5 ± 8.36 mg/dL and the “Serum lipid profile: Triglycerides” value (C57BL/KsBom-db/db mice [1]) was 115 ± 2.82 mg/dL. The “Cholesterol % change compared to control” value (C57BL/KsBom-db/db mice [1]; vs sham) was −21.8%, the “HDL-Chol % change compared to control” value (C57BL/KsBom-db/db mice [1]; vs sham) was “+33.2%” and the “Triglycerides % change compared to control” value (C57BL/KsBom-db/db mice [1]; vs sham) was −14.5%. For the same compound, the “enhancement of HDL-C as compared to the racemic compound” value (C57BL/KsBom-db/db mice [2]; 25 mg/kg body weight) was “more than two folds”, the “Serum lipid profile: Cholesterol” value (C57BL/KsBom-db/db mice [2]; db/db mice, 10 mg/kg) was 87.5 ± 3.00 mg/dL and the “Serum lipid profile: HDL-Chol” value (C57BL/KsBom-db/db mice [2]; db/db mice, 10 mg/kg) was 66.4 ± 2.87 mg/dL. The “Serum lipid profile: Triglycerides” value (C57BL/KsBom-db/db mice [2]; db/db mice, 10 mg/kg) was 110 ± 4.08 mg/dL, the “Cholesterol % change compared to control” value (C57BL/KsBom-db/db mice [2]; db/db mice, 10 mg/kg, vs sham) was −16.3% and the “HDL-Chol % change compared to control” value (C57BL/KsBom-db/db mice [2]; db/db mice, 10 mg/kg, vs sham) was “+17.4%”. For the same compound, the “Triglycerides % change compared to control” value (C57BL/KsBom-db/db mice [2]; db/db mice, 10 mg/kg, vs sham) was −17.9%, the “elevation in HDL-cholesterol level than control” value (C57BL/KsBom-db/db mice [2]; [4]) was “+17.4%” and the “lowering of serum cholesterol” value (C57BL/KsBom-db/db mice [2]; [4]) was “around 16.3%”. The “lowering of serum triglycerides” value (C57BL/KsBom-db/db mice [2]; [4]) was roughly 17.9%, the “decrease in LDL-cholesterol level” value (C57BL/KsBom-db/db mice [2]; db/db mice, 25 mg/kg) was “around 29.4%” and the “elevation in HDL-cholesterol level than control” value (C57BL/KsBom-db/db mice [2]; db/db mice, 25 mg/kg) was 33.2%. The “lowering of serum cholesterol” value (C57BL/KsBom-db/db mice [2]; db/db mice, 25 mg/kg) was “around 21.8%”, the “lowering of serum triglycerides” value (C57BL/KsBom-db/db mice [2]; db/db mice, 25 mg/kg) was roughly 14.5% and the “Comparative antihyperlipidemic activity: HDL-C” value (C57BL/KsBom-db/db mice [2]; db/db mice, test dose 10 mg/kg) was “+17.4^ns”. For the same compound, the “Comparative antihyperlipidemic activity: T-Chol” value (C57BL/KsBom-db/db mice [2]; [5]) was 16.3*, the “Comparative antihyperlipidemic activity: TG” value (C57BL/KsBom-db/db mice [2]; [5]) was 17.9* and the “Comparative antihyperlipidemic activity: HDL-C” value (C57BL/KsBom-db/db mice [2]; [6]) was “+33.2*”. For the same compound, the “Comparative antihyperlipidemic activity: T-Chol” value (C57BL/KsBom-db/db mice [2]; [6]) was 27.8*, the “Comparative antihyperlipidemic activity: TG” value (C57BL/KsBom-db/db mice [2]; [6]) was 14.5** and the “Blood glucose profile, 0 min post glucose load” value (C57BL/KsBom-db/db mice [3]; 10 mg/kg) was 9.23 ± 3.10 mM. The “Blood glucose % change compared to control, 0 min post glucose load” value (C57BL/KsBom-db/db mice [3]; 10 mg/kg, vs sham) was −25.7%, the “Blood glucose profile, 30 min post glucose load” value (C57BL/KsBom-db/db mice [3]; 10 mg/kg) was 19.3 ± 5.52 mM and the “Blood glucose % change compared to control, 30 min post glucose load” value (C57BL/KsBom-db/db mice [3]; 10 mg/kg, vs sham) was −32.8%. For the same compound, the “Blood glucose profile, 60 min post glucose load” value (C57BL/KsBom-db/db mice [3]; 10 mg/kg) was 18.4 ± 5.39 mM, the “Blood glucose % change compared to control, 60 min post glucose load” value (C57BL/KsBom-db/db mice [3]; 10 mg/kg, vs sham) was −27.2% and the “Blood glucose profile, 90 min post glucose load” value (C57BL/KsBom-db/db mice [3]; 10 mg/kg) was 12.1 ± 3.81 mM. The “Blood glucose % change compared to control, 90 min post glucose load” value (C57BL/KsBom-db/db mice [3]; 10 mg/kg, vs sham) was −26.9%, the “Blood glucose profile, 120 min post glucose load” value (C57BL/KsBom-db/db mice [3]; 10 mg/kg, OGTT day 10, 120 min) was 9.23 ± 3.10 mM and the “Blood glucose % change compared to control, 120 min post glucose load” value (C57BL/KsBom-db/db mice [3]; 10 mg/kg, OGTT day 10, 120 min, vs sham) was −11.7%. The “Blood glucose profile, −30 min post glucose load” value (C57BL/KsBom-db/db mice [3]; 10 mg/kg, OGTT day 10, −30 min) was 8.37 ± 2.98 mM, the “Blood glucose % change compared to control, −30 min post glucose load” value (C57BL/KsBom-db/db mice [3]; 10 mg/kg, OGTT day 10, −30 min, vs sham) was −23.9% and the “effect of 10 days treatment on glucose tolerance” value (C57BL/KsBom-db/db mice [3]; 10 mg/kg, not statistically significant) was “around 27.6%”. For the same compound, the “Blood glucose profile, 0 min post glucose load” value (C57BL/KsBom-db/db mice [3]; 25 mg/kg) was 4.81 ± 0.35 mM, the “Blood glucose % change compared to control, 0 min post glucose load” value (C57BL/KsBom-db/db mice [3]; 25 mg/kg, vs sham) was −41.8% and the “Blood glucose profile, 30 min post glucose load” value (C57BL/KsBom-db/db mice [3]; 25 mg/kg) was 17.8 ± 1.24 mM. For the same compound, the “Blood glucose % change compared to control, 30 min post glucose load” value (C57BL/KsBom-db/db mice [3]; 25 mg/kg, vs sham) was −38.6%, the “Blood glucose profile, 60 min post glucose load” value (C57BL/KsBom-db/db mice [3]; 25 mg/kg) was 16.3 ± 1.82 mM and the “Blood glucose % change compared to control, 60 min post glucose load” value (C57BL/KsBom-db/db mice [3]; 25 mg/kg, vs sham) was −48.3%. For the same compound, the “Blood glucose profile, 90 min post glucose load” value (C57BL/KsBom-db/db mice [3]; 25 mg/kg) was 13.0 ± 1.66 mM, the “Blood glucose % change compared to control, 90 min post glucose load” value (C57BL/KsBom-db/db mice [3]; 25 mg/kg, vs sham) was −45.5% and the “Blood glucose profile, 120 min post glucose load” value (C57BL/KsBom-db/db mice [3]; 25 mg/kg, OGTT day 10, 120 min) was 8.83 ± 0.72 mM.

Source: patent US20110077294A1, “R-(-) / S-(+)-7-[3-N SUBSTITUTED AMINO-2 HYDROXYPROPOXY] FLAVONES” (priority 2006, published 2011)
